Reference: patent publication US20240409536A1, “COMPOUNDS AND METHODS FOR MODULATING SPLICING” (REMIX THERAPEUTICS INC., priority 2021, published 2024)

Assays:
HiBiT-tagged MYB protein = test: HiBiT protein abundance assay, MYB (K562 HiBiT knock-in cells); type: cell-based, human; settings: 24 hours
Procedure, shortened: (§1)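 Luminescent readout of HiBiT-tagged endogenous protein after lysis, following 24 h compound exposure of knock-in K562 lines at 37 °C. Ten 3-fold concentrations from 10 μM final, DMSO ≤0.25%. Four-parameter logistic fit of normalized response gives concentration halving abundance (IC50).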

SMN2 mRNA = test: Gene panel canonical junction qPCR assay, SMN2 CJ mRNA decrease; type: cell-based, human; settings: Homo sapiens, canonical junction qPCR, read-out: SMN2 IC50 (decrease in CJ mRNA levels)
Procedure, shortened: (§2)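 IC50 values describe loss of canonical-junction transcript, fitted by 4-parameter logistic to percent response derived from fixed ΔCt windows. Read-out: RT-qPCR on lysates of compound-treated K562 or A673 cells, probes overlapping the exon junction, ΔΔCt versus housekeeping gene and DMSO control.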

MYB mRNA = test: Gene panel canonical junction qPCR assay, MYB CJ mRNA decrease; type: cell-based, human; settings: Homo sapiens, canonical junction qPCR, read-out: MYB IC50 (decrease in CJ mRNA levels)
Procedure, shortened: as §2

Target C mRNA = test: Gene panel canonical junction qPCR assay, Target C CJ mRNA decrease; type: cell-based; settings: Homo sapiens, canonical junction qPCR, read-out: Target C IC50 (decrease in CJ mRNA levels)
Procedure, shortened: as §2

HiBiT-tagged HTT protein = test: HiBiT protein abundance assay, HTT (K562 HiBiT knock-in cells); type: cell-based, human; settings: 24 hours
Procedure, shortened: as §1

Target C = test: HiBiT protein abundance assay, Target C (K562 HiBiT knock-in cells); type: cell-based, human; settings: 24 hours
Procedure, shortened: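 Protein abundance read by HiBiT lytic luminescence after 24 h compound exposure (37 °C) of knock-in K562 cells, 10000 cells/well in IMDM+1% FBS. Dosing: 10 points, 3-fold, top 10 μM final, ≤0.25% DMSO. Four-parameter logistic fit gave concentration reducing abundance to 50% of untreated control.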

Compound	IC50 (HiBiT-tagged MYB protein)	IC50 (SMN2 mRNA)	IC50 (MYB mRNA)	IC50 (Target C mRNA)	IC50 (HiBiT-tagged HTT protein)	IC50 (Target C)
CNC1CCN(c2ccc(C(=O)Nc3cc(F)c4nc(C)cn4c3)c3ncc(OC)nc23)C1 (stereo in doubt) [Compound 227, (R)—N-(8-fluoro-2-methylimidazo[1,2-a]pyridin-6-yl)-2-methoxy-8-(3-(methylamino)pyrrolidin-1-yl)quinoxaline-5-carboxamide 2,2,2-trifluoroacetate]	100 to 1000 nM	< 100 nM	1000 to 10000 nM	> 10000 nM	1000 to 10000 nM	100 to 1000 nM
Cc1cn2cc(NC(=O)c3ccc(N4CCC(NC(C)(C)C)C4)c4ccnnc34)cc(F)c2n1 (centres unmarked) [Compound 109]	1000 to 10000 nM	100 to 1000 nM	1000 to 10000 nM	–	1000 to 10000 nM	1000 to 10000 nM
Cc1cnc2c(C(=O)Nc3cc(F)c4nc(C)cn4c3)ccc(N3C[C@@H](C)N[C@@H](C)C3)c2n1 [Compound 217, 8-((3R,5S)-3,5-dimethylpiperazin-1-yl)-N-{8-fluoro-2-methylimidazo[1,2-a]pyridin-6-yl}-2-methylquinoxaline-5-carboxamide]	< 100 nM	< 100 nM	< 100 nM	100 to 1000 nM	100 to 1000 nM	100 to 1000 nM
CCNC1CCN(c2ccc(C(=O)Nc3cc(F)c4nc(C)cn4c3)c3nc(C)ccc23)CC1 [Compound 228, 5-[4-(ethylamino)piperidin-1-yl]-N-{8-fluoro-2-methylimidazo[1,2-a]pyridin-6-yl}-2-methylquinoline-8-carboxamide]	< 100 nM	< 100 nM	< 100 nM	100 to 1000 nM	100 to 1000 nM	100 to 1000 nM
COCCOc1ccc2c(N3CCC(N(C)C)CC3)ccc(C(=O)Nc3cc(F)c4nc(C)cn4c3)c2n1 [Compound 229, 5-[4-(dimethylamino)piperidin-1-yl]-N-{8-fluoro-2-methylimidazo[1,2-a]pyridin-6-yl}-2-(2-methoxyethoxy)quinoline-8-carboxamide]	< 100 nM	< 100 nM	100 to 1000 nM	> 10000 nM	> 10000 nM	> 10000 nM
Cc1cn2cc(NCc3ccc(N4CCNCC4)c4ccnnc34)cc(F)c2n1 [Compound 230, 8-fluoro-2-methyl-N-{[5-(piperazin-1-yl)cinnolin-8-yl]methyl}imidazo[1,2-a]pyridin-6-amine]	> 10000 nM	> 10000 nM	> 10000 nM	> 10000 nM	> 10000 nM	> 10000 nM
CNC1CCN(c2ccc(C(=O)Nc3cc(F)c4nc(C)cn4c3)c3nnccc23)C1 (centres unmarked) [Compound 231, N-{8-fluoro-2-methylimidazo[1,2-a]pyridin-6-yl}-5-[3-(methylamino)pyrrolidin-1-yl] cinnoline-8-carboxamide]	< 100 nM	< 100 nM	< 100 nM	> 10000 nM	1000 to 10000 nM	1000 to 10000 nM
COCCOc1ccc2c(N3C[C@@H](C)N[C@@H](C)C3)ccc(C(=O)Nc3cc(F)c4nc(C)cn4c3)c2n1 [Compound 232, 5-[(3R,5S)-3,5-dimethylpiperazin-1-yl]-N-{8-fluoro-2-methylimidazo[1,2-a]pyridin-6-yl}-2-(2-methoxyethoxy)quinoline-8-carboxamide]	< 100 nM	< 100 nM	100 to 1000 nM	1000 to 10000 nM	1000 to 10000 nM	1000 to 10000 nM
CCNC1CCN(c2ccc(C(=O)Nc3cc(F)c4nc(C)cn4c3)c3nc(OCCOC)ccc23)CC1 [Compound 233, 5-[4-(ethylamino)piperidin-1-yl]-N-{8-fluoro-2-methylimidazo[1,2-a]pyridin-6-yl}-2-(2-methoxyethoxy)quinoline-8-carboxamide]	< 100 nM	< 100 nM	100 to 1000 nM	1000 to 10000 nM	1000 to 10000 nM	1000 to 10000 nM
